Experimental data published in publication PMC9948168, “Vanillin-Based Indolin-2-one Derivative Bearing a Pyridyl Moiety as a Promising Anti-Breast Cancer Agent via Anti-Estrogenic Activity” (ACS Omega, 2023).

Key:
Test in all cases: NCI-60 one-dose screening
Type in all cases: cell-based
[1] = tested on: A498; settings: Homo sapiens, A498, Renal Cancer, read-out: GI (%)
[2] = tested on: BT-549; settings: Homo sapiens, BT-549, Breast Cancer, read-out: GI (%)
[3] = tested on: CCRF-CEM; settings: Homo sapiens, Leukemias, read-out: GI (%)
[4] = tested on: DU-145; settings: Homo sapiens, DU-145, Prostate Cancer, read-out: GI (%)
[5] = tested on: EKVX; settings: Homo sapiens, Non-Small Cell Lung Cancer, read-out: GI (%)
[6] = tested on: HCT-116; settings: Homo sapiens, HCT-116, Colon Cancer, read-out: GI (%)
[7] = tested on: HCT-15; settings: Homo sapiens, HCT-15, Colon Cancer, read-out: GI (%)
[8] = tested on: HOP-92; settings: Homo sapiens, HOP-92, Non-Small Cell Lung Cancer, read-out: GI (%)
[9] = tested on: HS 578T; settings: Homo sapiens, Breast Cancer, read-out: GI (%)
[10] = tested on: HT29; settings: Homo sapiens, HT-29, HT29, Colon Cancer, read-out: GI (%)
[11] = tested on: IGROV1; settings: Homo sapiens, IGROV-1, IGROV1, Ovarian Cancer, read-out: GI (%)
[12] = tested on: KM12; settings: Homo sapiens, KM12, Colon Cancer, read-out: GI (%)
[13] = tested on: MALME-3M; settings: Homo sapiens, Melanoma, read-out: GI (%)
[14] = tested on: MDA-MB-435; settings: Homo sapiens, MDA-MB-435, Melanoma, read-out: GI (%)
[15] = tested on: NCI-H226; settings: Homo sapiens, NCI-H226, Non-Small Cell Lung Cancer, read-out: GI (%)
[16] = tested on: NCI-H23; settings: Homo sapiens, NCI-H23, Non-Small Cell Lung Cancer, read-out: GI (%)
[17] = tested on: NCI-H322M; settings: Homo sapiens, Non-Small Cell Lung Cancer, read-out: GI (%)
[18] = tested on: NCI-H460; settings: Homo sapiens, NCI-H460, Non-Small Cell Lung Cancer, read-out: GI (%)
[19] = tested on: NCI-H522; settings: Homo sapiens, NCI-H522, Non-Small Cell Lung Cancer, read-out: GI (%)
[20] = tested on: NCI/ADR-RES; settings: Homo sapiens, Ovarian Cancer, read-out: GI (%)
[21] = tested on: OVCAR-4; settings: Homo sapiens, OVCAR-4, 10 μM; OVCAR-4, Ovarian Cancer; read-out: GI (%)
[22] = tested on: OVCAR-5; settings: Homo sapiens, OVCAR-5, Ovarian Cancer, read-out: GI (%)
[23] = tested on: PC-3; settings: Homo sapiens, PC-3, Prostate Cancer, read-out: GI (%)
[24] = tested on: RPMI-8226; settings: Homo sapiens, RPMI-8226, Leukemias, read-out: GI (%)
[25] = tested on: SF-268; settings: Homo sapiens, SF-268, CNS Cancer, read-out: GI (%)
[26] = tested on: SF-539; settings: Homo sapiens, SF-539, CNS Cancer, read-out: GI (%)
[27] = tested on: SK-MEL-28; settings: Homo sapiens, SK-MEL-28, Melanoma, read-out: GI (%)
[28] = tested on: SK-MEL-5; settings: Homo sapiens, SK-MEL-5, Melanoma, read-out: GI (%)
[29] = tested on: SK-OV-3; settings: Homo sapiens, SK-OV-3, Ovarian Cancer, read-out: GI (%)
[30] = tested on: SN12C; settings: Homo sapiens, Renal Cancer, read-out: GI (%)
[31] = tested on: SR; settings: Homo sapiens, Leukemias, read-out: GI (%)
[32] = tested on: SW-620; settings: Homo sapiens, SW-620, Colon Cancer, read-out: GI (%)
[33] = tested on: UACC-257; settings: Homo sapiens, UACC-257, Melanoma, read-out: GI (%)
[34] = tested on: UACC-62; settings: Homo sapiens, UACC-62, Melanoma, read-out: GI (%)
[35] = tested on: UO-31; settings: Homo sapiens, UO-31, Renal Cancer, read-out: GI (%)

| Structure (SMILES) | inhibition at 10 µM [1] [%] | inhibition at 10 µM [2] [%] | inhibition at 10 µM [3] [%] | inhibition at 10 µM [4] [%] | inhibition at 10 µM [5] [%] | inhibition at 10 µM [6] [%] | inhibition at 10 µM [7] [%] | inhibition at 10 µM [8] [%] | inhibition at 10 µM [9] [%] | inhibition at 10 µM [10] [%] | inhibition at 10 µM [11] [%] | inhibition at 10 µM [12] [%] | inhibition at 10 µM [13] [%] | inhibition at 10 µM [14] [%] | inhibition at 10 µM [15] [%] | inhibition at 10 µM [16] [%] | inhibition at 10 µM [17] [%] | inhibition at 10 µM [18] [%] | inhibition at 10 µM [19] [%] | inhibition at 10 µM [20] [%] | also measured |
| --- | --- | --- | --- | --- | --- | --- | --- | --- | --- | --- | --- | --- | --- | --- | --- | --- | --- | --- | --- | --- | --- |
| COc1ccc(COc2ccc(/C=C3/C(=O)Nc4cc(Cl)ccc43)cc2OC)cc1 [6n] | 6.39 | 0.06 | 5.65 | 3.17 | 13.1 | 11.1 | 0.12 | -8.09 | 0.21 | -0.76 | 20.1 | 0.42 | 2.77 | -5.13 | 6.67 | 2.17 | 3.24 | 20.7 | 11.5 | 0.37 | inhibition at 10 µM [21]: 17.6%; inhibition at 10 µM [22]: 2.3%; inhibition at 10 µM [23]: 7.65%; inhibition at 10 µM [24]: 9.52%; inhibition at 10 µM [25]: 0.26%; inhibition at 10 µM [26]: 9.72%; inhibition at 10 µM [27]: -2.94%; inhibition at 10 µM [28]: 3.06%; inhibition at 10 µM [29]: -7.5%; inhibition at 10 µM [30]: 4.32%; inhibition at 10 µM [31]: 0.64%; inhibition at 10 µM [32]: 3.63%; inhibition at 10 µM [33]: -21.9%; inhibition at 10 µM [34]: 12.2%; inhibition at 10 µM [35]: 18.6% |
| COc1cc(/C=C2/C(=O)Nc3cc(Cl)ccc32)ccc1OCc1ccccn1 [6o] | -7.62 | 3.31 | -8.83 | -7.21 | 25.3 | 2.05 | 7.58 | -5.39 | -1.2 | -15.4 | 25.2 | 2.85 | 4.92 | -6.9 | 5.24 | 4.55 | 0.51 | -3.23 | -1.8 | -7.14 | inhibition at 10 µM [21]: 3.45%; inhibition at 10 µM [22]: 2.11%; inhibition at 10 µM [23]: 2.25%; inhibition at 10 µM [24]: -0.91%; inhibition at 10 µM [25]: -6.37%; inhibition at 10 µM [26]: 4.76%; inhibition at 10 µM [27]: -7.43%; inhibition at 10 µM [28]: 1.29%; inhibition at 10 µM [29]: -7.09%; inhibition at 10 µM [30]: -4.12%; inhibition at 10 µM [31]: 6.43%; inhibition at 10 µM [32]: 0.42%; inhibition at 10 µM [33]: -22.8%; inhibition at 10 µM [34]: 6.45%; inhibition at 10 µM [35]: 16.6% |
